We go through six molecules from patent US20120010281A1, “ANTIMICROBIAL AND ANTI[…]” (THE TRUSTEES OF PRINCETON UNIVERSITY, priority 2010, published 2012).

The subject of this experiment is M. tuberculosis mc^27000. Briefly: microbe, parasite or virus in culture. Format: cell-based. Conditions: for MIC: Mycobacterium tuberculosis, 120 h, range of assayed concentrations that bounds the mean of three independent determinations, read-out: mc^27000 7H9 MIC; for inhibitory activity against Mtb mc^27000 (in words): comment on the Table 1 MIC values, relative to tiamulin.

≈ marks a conversion by molar mass, not a printed value.

As to `C=C1C[C@@H](OC(=O)CSCCN(CC)CC)C2CCCC3(CCC(=O)C23)C[C@H]1O` (some centres unmarked) [Compound 20c], the MIC is 12 to 25 µg/mL (≈ 28.3 to 59 µM) and the “inhibitory activity against Mtb mc^27000 (in words)” value (from here on “inhibitory activity”) is “compares favorably to tiamulin”.
As for `CCN(CC)CCSCC(=O)O[C@H]1C/C(C)=C\CC23CCCC1C2C(=O)CC3` (some centres unmarked) [Compound 25], the MIC was 50 µg/mL (≈ 123 µM) and the “inhibitory activity” value is on record as “moderate, yet significant, level of activity”.
In the case of `C=C1C[C@@H](OC(=O)CO)C2CCCC3(CCC(=O)C23)C[C@@H]1O` (some centres unmarked) [Compound 4], the MIC is greater than 200 µg/mL.
Consider `C=C[C@]1(C)C[C@@H](OC(=O)CSCCN(CC)CC)C2(C)C(C)CCC3(CCC(=O)C32)[C@@H](C)[C@@H]1O` (some centres unmarked) [tiamulin (3), tiamulin, reference compound], for which the MIC lay in the range of 12 to 25 µg/mL (≈ 24.3 to 50.6 µM) and the “inhibitory activity” value is reported as “low micromolar MIC values”.
Consider `C=CC1(C)C[C@@H](OC(=O)CO)C2(C)C(C)CCC3(CCC(=O)C32)[C@@H](C)[C@@H]1O` (some centres unmarked) [Pleuromutilin (1), Pleuromutilin, reference compound], for which the MIC is 25 to 50 µg/mL (≈ 66 to 132 µM) and the “inhibitory activity” value is listed as “low micromolar MIC values”.
Consider `C=C1C[C@@H](OC(=O)CSCCN(CC)CC)C2CCCC3(CCC(=O)C23)C[C@@H]1O` (some centres unmarked) [Compound 20a], for which the MIC was 50 to 100 µg/mL (≈ 118 to 236 µM) and the “inhibitory activity” value is “attenuated activity”.
